The record followed here is ChEMBL document CHEMBL1201862, “PubChem BioAssay data set” (2004).

Activity calls are given as the source filed them.

In experiment [1] the target is T1, Exodeoxyribonuclease V (Escherichia coli (strain K12), UniProt P04993+P07648+P08394).
T1 sequence (P04993 whole entry): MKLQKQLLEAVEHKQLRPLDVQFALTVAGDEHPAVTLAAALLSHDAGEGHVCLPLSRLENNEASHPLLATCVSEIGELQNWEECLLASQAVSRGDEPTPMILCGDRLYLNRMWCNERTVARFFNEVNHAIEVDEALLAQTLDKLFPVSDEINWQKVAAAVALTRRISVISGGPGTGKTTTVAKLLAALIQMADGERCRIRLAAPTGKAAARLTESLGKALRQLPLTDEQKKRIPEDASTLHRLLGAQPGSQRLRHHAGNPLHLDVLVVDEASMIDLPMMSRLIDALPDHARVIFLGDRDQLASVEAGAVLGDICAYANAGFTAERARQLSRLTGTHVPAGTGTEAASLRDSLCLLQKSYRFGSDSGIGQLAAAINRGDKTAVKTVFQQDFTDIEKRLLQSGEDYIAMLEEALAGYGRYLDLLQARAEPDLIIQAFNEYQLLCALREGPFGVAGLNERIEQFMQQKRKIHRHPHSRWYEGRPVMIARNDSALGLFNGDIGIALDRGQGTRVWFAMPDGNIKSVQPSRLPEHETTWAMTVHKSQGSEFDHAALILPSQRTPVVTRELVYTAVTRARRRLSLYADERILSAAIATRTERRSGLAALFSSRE
T1 sequence (P07648 whole entry): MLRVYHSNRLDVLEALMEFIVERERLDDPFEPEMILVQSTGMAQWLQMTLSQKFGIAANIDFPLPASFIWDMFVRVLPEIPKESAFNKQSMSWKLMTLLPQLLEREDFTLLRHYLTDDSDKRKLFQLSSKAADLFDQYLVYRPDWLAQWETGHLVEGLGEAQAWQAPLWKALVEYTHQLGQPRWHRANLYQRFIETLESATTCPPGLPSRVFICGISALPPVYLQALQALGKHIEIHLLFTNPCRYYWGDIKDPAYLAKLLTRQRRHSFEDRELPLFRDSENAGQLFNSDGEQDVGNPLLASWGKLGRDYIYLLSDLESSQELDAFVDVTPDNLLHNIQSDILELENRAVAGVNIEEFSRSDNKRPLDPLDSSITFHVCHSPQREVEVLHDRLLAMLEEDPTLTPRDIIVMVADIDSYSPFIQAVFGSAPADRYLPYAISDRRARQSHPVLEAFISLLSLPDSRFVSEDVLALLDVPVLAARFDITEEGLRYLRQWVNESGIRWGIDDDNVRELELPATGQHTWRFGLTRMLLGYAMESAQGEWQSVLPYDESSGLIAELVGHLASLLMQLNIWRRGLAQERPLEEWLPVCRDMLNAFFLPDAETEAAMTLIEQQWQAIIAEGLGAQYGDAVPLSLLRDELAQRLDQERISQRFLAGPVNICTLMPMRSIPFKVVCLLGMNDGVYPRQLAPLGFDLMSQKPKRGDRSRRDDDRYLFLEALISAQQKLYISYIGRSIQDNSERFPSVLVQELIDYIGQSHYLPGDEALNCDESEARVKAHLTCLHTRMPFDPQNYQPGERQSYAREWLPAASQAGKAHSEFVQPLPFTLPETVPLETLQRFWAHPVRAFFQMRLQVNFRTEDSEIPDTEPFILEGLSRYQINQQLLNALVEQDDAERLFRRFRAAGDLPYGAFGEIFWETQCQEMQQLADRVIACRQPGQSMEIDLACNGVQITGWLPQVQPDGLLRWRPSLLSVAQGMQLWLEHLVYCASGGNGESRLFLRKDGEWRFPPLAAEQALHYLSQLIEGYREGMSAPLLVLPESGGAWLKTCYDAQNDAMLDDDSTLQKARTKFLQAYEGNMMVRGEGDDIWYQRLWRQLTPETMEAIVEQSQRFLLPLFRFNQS
T1 sequence (P08394 whole entry): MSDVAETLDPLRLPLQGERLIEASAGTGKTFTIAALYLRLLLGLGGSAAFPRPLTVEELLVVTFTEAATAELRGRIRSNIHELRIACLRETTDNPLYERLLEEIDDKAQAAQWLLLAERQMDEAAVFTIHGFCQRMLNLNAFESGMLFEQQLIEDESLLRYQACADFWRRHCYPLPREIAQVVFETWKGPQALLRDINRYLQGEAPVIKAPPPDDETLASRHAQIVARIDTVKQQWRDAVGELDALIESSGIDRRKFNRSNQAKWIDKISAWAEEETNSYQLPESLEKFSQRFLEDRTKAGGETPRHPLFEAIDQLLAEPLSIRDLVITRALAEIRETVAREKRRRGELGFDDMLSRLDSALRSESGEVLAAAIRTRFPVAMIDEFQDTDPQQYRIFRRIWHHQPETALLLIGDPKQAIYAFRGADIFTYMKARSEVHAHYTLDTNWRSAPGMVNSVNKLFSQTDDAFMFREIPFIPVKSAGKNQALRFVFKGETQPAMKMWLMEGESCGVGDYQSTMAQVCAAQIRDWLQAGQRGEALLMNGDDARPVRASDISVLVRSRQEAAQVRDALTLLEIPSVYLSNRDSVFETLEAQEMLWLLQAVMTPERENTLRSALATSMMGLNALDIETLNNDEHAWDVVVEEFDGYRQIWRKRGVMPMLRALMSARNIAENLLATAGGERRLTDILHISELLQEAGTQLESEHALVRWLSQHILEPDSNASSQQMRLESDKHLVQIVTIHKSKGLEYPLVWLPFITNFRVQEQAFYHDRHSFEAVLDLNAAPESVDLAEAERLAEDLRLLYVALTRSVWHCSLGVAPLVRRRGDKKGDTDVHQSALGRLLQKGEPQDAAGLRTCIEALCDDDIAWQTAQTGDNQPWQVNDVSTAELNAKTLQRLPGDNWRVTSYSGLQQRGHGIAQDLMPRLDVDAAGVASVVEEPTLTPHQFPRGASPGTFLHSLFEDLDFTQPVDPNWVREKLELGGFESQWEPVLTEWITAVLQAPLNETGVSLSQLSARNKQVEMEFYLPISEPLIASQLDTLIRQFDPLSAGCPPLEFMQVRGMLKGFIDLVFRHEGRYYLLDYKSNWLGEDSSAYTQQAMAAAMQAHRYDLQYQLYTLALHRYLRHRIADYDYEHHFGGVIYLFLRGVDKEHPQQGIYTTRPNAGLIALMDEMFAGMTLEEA
In words: RecBCD inhibition via phage-restricted bacterial growth – absorbance, V66 E. coli, mutant T4 phage, counter-screen for AddAB inhibitor project, dose response (AID 492957). The class given is functional, cell-based, Escherichia coli str. K-12 substr. MG1655.

The nature of experiment [2]: Counterscreen for AddAB inhibitors: absorbance-based bacterial cell-based high throughput dose response assay for inhibitors of bacterial viability. [Related pubchem assays (depositor defined):AID435030, AID449728, AID449731, AID488942, AID488955, AID488956]. The experiment is classed as functional. In general terms: Counterscreens check selectivity or assay interference.

The subject of experiment [3] is Jurkat. In words: SAR Analysis of small molecule inhibitors of T-cell specific antigen receptor-induced NF-kB activation in a Jurkat cell line using a luminescence assay - Set 2. [Related pubchem assays (depositor defined):AID435003, AID435012, AID465]. The following applies: Homo sapiens. The class given is functional, cell-based.
Experiment [4] in a line: cells. The experiment is classed as functional, cell-based.
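Throughout, for EC50: proteasome chymotrypsin-like activity measured in U2OS cells; potency is for inhibition of proteasome activity.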

`CCCCC(=O)NC(c1ccc(N(C)C)cc1)c1ccc2cccnc2c1O` (centres undefined): the IC50 (usually the point on the concentration scale where inhibition reaches its midpoint) in experiment [1] is > 119 µM (inactive); in experiment [2], > 119 µM (inactive); in experiment [3], 1.7 µM (active). For the same compound, in experiment [4], the 50% effective concentration (EC50) (as a rule, the concentration needed to bring the measured effect to its halfway point) is listed as > 350 µM (not active).
